The values that follow come from patent publication US6461997B1, “Triazole sulfones having herbicidal activity” (Monsanto Technology LLC, priority 1999, dated 2002).

One assay concerns SETFA (giant foxtail). Put plainly: Pre-emergence herbicidal activity, warm season. Type of assay: in vivo, Setaria faberi. As to conditions: GR80 = lowest tested rate (300, 100, 30, 10 g/ha) with 80% or greater inhibition; approx. 14 days after treating; 30/21° C. In outline: (§1)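 Activity is expressed as the rate giving 80% inhibition, with 300, 100, 30 and 10 g/ha typically tested. An asterisk marks activity short of 80% at the top rate. Warm-season grasses were held at 30/21 °C; cool-season blackgrass and wild buckwheat at 18/13 °C; scoring at about 14 days.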

The test system of assay [1] is BRAPP (broadleaf signalgrass). Put plainly: Pre-emergence herbicidal activity, warm season. As to conditions: GR80 = lowest tested rate (300, 100, 30, 10 g/ha) with 80% or greater inhibition; approx. 14 days after treating; 30/21° C. Type of assay: in vivo, Brachiaria platyphylla. An outline of the steps: as §1
Assay [2] has as its system GALAP (catchweed bedstraw). Put plainly: Pre-emergence herbicidal activity, cool season. Type of assay: in vivo, Galium aparine. As to conditions: lowest tested rate with 80% or greater inhibition; rates 300, 100, 30, 10 g/ha; about 14 days. In outline: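 Seeds sown in sterilised fertilised topsoil received surface-applied compound in 50:50 acetone/water, typically at 300, 100, 30 and 10 g/ha, then greenhouse-grown at 30/21° C (warm-season species) or 18/13° C (cool-season species). Percent inhibition versus untreated plants was scored at about 14 days, giving GR80; an asterisk marks activity short of 80% at the top rate.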

The subject of a further assay is PANDI (fall panicum). Briefly: Pre-plant incorporated (PPI) herbicidal activity, warm season. To be noted: for Percent inhibition PANDI: PPI application. Type of assay: in vivo, Panicum dichotomiflorum. On the procedure: (§2) In another set of tests, the pre-plant incorporated (PPI) activity of compounds of this invention was evaluated on the same species as for the pre-emergence tests described above. In the PPI tests the following procedure, designed to simulate PPI application, was used.
(§3) A pre-prepared topsoil mixture (described above) was placed in a pot and compacted to a depth of 1.0 to 1.25 cm from the top of the pot. Seeds of each of several monocotyledonous and dicotyledonous annual plant species were placed on top of the soil. A sufficient quantity of soil to cover the seeds and level fill the pot was weighed into an open container. A known amount of the test compound was dissolved or suspended in an organic solvent and applied by spraying to this cover soil. The cover soil was thoroughly mixed to distribute the test compound throughout the cover soil, and was then applied as a cover layer over the seeds. Untreated soil was used as a cover layer for control pots. After treatment the plants were placed in a greenhouse where they received 0.64 cm of overhead irrigation. All subsequent watering consisted of a light overhead mist and/or subirrigation as needed for germination and growth. Tables 9 and 10 below relate to warm season plant species which were placed after pre-emergence treatment in a greenhouse with a 30/21° C. day/night temperature regime. Tables 11 and 12 below relates to cool season plant species placed after pre-emergence treatment in a greenhouse or growth chamber with an 18/13° C. day/night temperature regime. Only the compounds of Examples 1, 6, 8, 11, 13 and 15-20 were included in PPI tests.
(§4) Approximately 14 days after planting and treating, the plants were observed and herbicidal efficacy recorded as percent inhibition by comparison with untreated plants.

Another assay relates to SINAR (wild mustard). Briefly: Pre-plant incorporated (PPI) herbicidal activity, cool season. Type of assay: in vivo, Sinapis arvensis. As to conditions: for PPI activity GR80, SINAR: pre-plant incorporated, lowest tested rate with 80% or greater inhibition, about 14 days; for Percent inhibition SINAR: weed, PPI application. On the procedure:
as §2, §3, §4

The subject of assay [3] is VERPE (creeping speedwell). The assay is described as above. Type of assay: in vivo, Veronica persicaria. As to conditions: for PPI activity GR80, VERPE: pre-plant incorporated, lowest tested rate with 80% or greater inhibition, about 14 days; for Percent inhibition VERPE: weed, PPI application. How it is done:
as §2, §3, §4

The next assay relates to SASKR (russian thistle). The description is as above. Type of assay: in vivo, Salsola kali. As to conditions: for PPI activity GR80, SASKR: pre-plant incorporated, lowest tested rate with 80% or greater inhibition, about 14 days; for Percent inhibition SASKR: weed, PPI application. How it is done:
as §2, §3, §4

Assay [4] concerns AGSST (creeping bentgrass). The assay is described as above. Type of assay: in vivo, Agrostis stolonifera. As to conditions: for PPI activity GR80, AGSST: pre-plant incorporated, lowest tested rate with 80% or greater inhibition, about 14 days; for Percent inhibition AGSST: weed, PPI application. On the procedure:
as §2, §3, §4

A further assay deals with rice (ORYSA). Briefly: Selectivity test, PPI, warm season crop. As to conditions: PPI application. Type of assay: in vivo, Oryza sativa. How it is done: as §3, §4
(§5) Additional pre-emergence and PPI tests were conducted by the procedures described above, on warm and cool season weed species in the presence of crop species, to assess herbicidal selectivity. Crop species included in warm season tests were corn (Zea mays, ZEAMX), rice (Oryza sativa, ORYSA) and soybean (Glycine max, GLYMX). Crop species included in cool season tests were wheat (Triticum aestivum, TRZAW), barley (Hordeunm vulgare, HORVX) and oilseed rape (Brassica napus, BRSNS).
(§6) Tables 15 and 16 relate to pre-emergence and PPI tests respectively on warm season species. Table 17 relates to pre-emergence tests on cool season species.

The next assay deals with oilseed rape (BRSNS). Briefly: Selectivity test, PPI, cool season crop. Type of assay: in vivo, Brassica napus. To be noted: PPI application. On the procedure:
as §3, §4, §5, §6

Regarding `CCN(CC)C(=O)n1cnc(S(=O)(=O)C(F)(F)C(=O)c2ccccc2)n1` [Example 6], the “Pre-emergence activity (GR80) SETFA” value in the assay on SETFA (giant foxtail) is “* (activity observed, at least at highest rate, but <80% inhibition)”. Also, the “Pre-emergence activity (GR80) BRAPP” value in assay [1] is reported as “* (activity observed, at least at highest rate, but <80% inhibition)”. For the same compound, the “Pre-emergence activity GR80, GALAP” value in assay [2] was 100 g/ha. In addition, the “PPI activity GR80, PANDI” value in the assay on PANDI (fall panicum) (pre-plant incorporated, lowest tested rate with 80% or greater inhibition, about 14 days) amounted to 100 g/ha. For the same compound, the “PPI activity GR80, SINAR” value with SINAR (wild mustard) came out at 300 g/ha. Further, in [3], the “PPI activity GR80, VERPE” value turned out to be 100 g/ha. In addition, the “PPI activity GR80, SASKR” value with SASKR (russian thistle) came to 300 g/ha. Besides, the “PPI activity GR80, AGSST” value in assay [4] is 100 g/ha.

As for `CCN(CC)C(=O)n1cnc(S(=O)(=O)C(F)(F)SCC(=O)OC)n1` [Example 11], the “Pre-emergence activity GR80, GALAP” value in assay [2] was “[empty]”. Also, the “Percent inhibition PANDI” value in the assay with PANDI (fall panicum) (10 g/ha) is 0%; in the assay on PANDI (fall panicum) (30 g/ha) it was 0%; in the assay with PANDI (fall panicum) (100 g/ha) it was 70%; in the assay on PANDI (fall panicum) (300 g/ha), 99%; in the assay on PANDI (fall panicum) (900 g/ha), 100%. Besides, the “PPI activity GR80, SINAR” value in the assay on SINAR (wild mustard) was determined as 100 g/ha. Besides, the “Percent inhibition SINAR” value in the assay on SINAR (wild mustard) (10 g/ha) is 0%; in the assay with SINAR (wild mustard) (30 g/ha), 0%; with SINAR (wild mustard) (100 g/ha), 0%; in the assay on SINAR (wild mustard) (300 g/ha), 0%; in the assay on SINAR (wild mustard) (900 g/ha), 99%. Besides, in assay [3], the “PPI activity GR80, VERPE” value is “[empty]”. The “Percent inhibition VERPE” value was 90% in [3] (10 g/ha); 90% in [3] (30 g/ha); 100% in [3] (100 g/ha); 100% in assay [3] (300 g/ha); 100% in assay [3] (900 g/ha). The “PPI activity GR80, SASKR” value in the assay with SASKR (russian thistle) was 100 g/ha. Further, the “Percent inhibition SASKR” value with SASKR (russian thistle) (10 g/ha) is 0%; in the assay on SASKR (russian thistle) (30 g/ha) it was 20%; in the assay on SASKR (russian thistle) (300 g/ha) it was 30%; in the assay with SASKR (russian thistle) (900 g/ha), 65%. Further, the “PPI activity GR80, AGSST” value in assay [4] stood at 300 g/ha. The “Percent inhibition AGSST” value in [4] (10 g/ha) turned out to be 60%; in assay [4] (30 g/ha), 50%; in assay [4] (100 g/ha) it was 60%; in assay [4] (300 g/ha), 90%; in assay [4] (900 g/ha), 100%. Moreover, the “Percent inhibition ORYSA” value with rice (ORYSA) (10 g/ha) is given as 0%; in the assay with rice (ORYSA) (30 g/ha), 0%; with rice (ORYSA) (100 g/ha), 0%; in the assay with rice (ORYSA) (300 g/ha), 40%; with rice (ORYSA) (900 g/ha), 40%. Moreover, the “Percent inhibition BRSNS” value in the assay with oilseed rape (BRSNS) (10 g/ha), in the assay with oilseed rape (BRSNS) (30 g/ha), with oilseed rape (BRSNS) (100 g/ha), in the assay on oilseed rape (BRSNS) (300 g/ha) and with oilseed rape (BRSNS) (900 g/ha) was 0% in each case.
